Assay results reported in PubChem BioAssay (NCI).
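Grown in 96-well plates, cells were treated for 48 hours with each compound at five concentrations. Insufficient inhibition: endpoint recorded as highest concentration tested. GI50 is the concentration that inhibits growth by half. TGI is the concentration that stops growth completely.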

Tests used:
Experiment in all cases: NCI-60 cell line screen, 48 h
786-0 renal = system: 786-0 renal
HOP-62 NSCLC = system: HOP-62 NSCLC
HOP-92 NSCLC = system: HOP-92 NSCLC
MALME-3M melanoma = system: MALME-3M melanoma
OVCAR-5 ovarian = system: OVCAR-5 ovarian
SF-268 CNS = system: SF-268 CNS
SN12C renal = system: SN12C renal
SW-620 colon = system: SW-620 colon
UACC-62 melanoma = system: UACC-62 melanoma
UO-31 renal = system: UO-31 renal

SMILES	GI50 (786-0 renal) [µM]	TGI (786-0 renal) [µM]	GI50 (HOP-62 NSCLC) [µM]	TGI (HOP-62 NSCLC) [µM]	GI50 (HOP-92 NSCLC) [µM]	TGI (HOP-92 NSCLC) [µM]	GI50 (MALME-3M melanoma) [µM]	TGI (MALME-3M melanoma) [µM]	GI50 (OVCAR-5 ovarian) [µM]	TGI (OVCAR-5 ovarian) [µM]	GI50 (SF-268 CNS) [µM]	TGI (SF-268 CNS) [µM]	GI50 (SN12C renal) [µM]	TGI (SN12C renal) [µM]	GI50 (SW-620 colon) [µM]	TGI (SW-620 colon) [µM]	GI50 (UACC-62 melanoma) [µM]	TGI (UACC-62 melanoma) [µM]	GI50 (UO-31 renal) [µM]	TGI (UO-31 renal) [µM]
COc1cc(CCN)c2c(c1OC)SSSSS2	1.04	2.22	1.81	3.3	1.42	2.96	2.08	4.09	0.591	1.48	1.95	4.76	1.13	2.38	0.101	0.283	1.37	2.97	0.262	1.12
CCCCC1CC(c2cccc([N+](=O)[O-])c2)=NO1 (centres undefined)		> 100		> 100		> 100		> 100		> 100		> 100		> 100		> 100		> 100		> 100
CCC(=O)O[C@H]1CC[C@H]2[C@@H]3CC[C@H]4CC(=O)[C@H](C)C[C@]4(C)[C@H]3CC[C@]12C	43.3	> 100	37.7	> 100		63	45.7	> 100	74.8	> 100	> 75.7	> 100	> 85.2	> 100	31.9	> 100	13.9	> 100	24.5	> 100
CC(C)C1(O)C(c2ccccc2)=C(c2ccccc2)C(c2ccccc2)=C1c1ccccc1		74.4		30.1		50.2		30.9		> 100		27.6		41.6		> 100		20.9		23.7
Oc1ccc(C(c2ccc(O)cc2)c2ccc(Cl)cn2)cc1	36.2	> 100	33.7	> 100	0.266	0.947	24.6	> 100	17.6	> 100	25.9	> 100	0.0408	0.331	60.7	> 100	1.59	17.8	2.04	> 100
COC(=O)C1C(O)CC(c2ccccn2)N(Cc2ccccc2)C1c1ccccn1 (centres undefined)		> 100		> 100		> 100		> 100		> 100		> 100		> 100		> 100		> 100		> 100
O=C([CH-]C(=O)c1ccccc1)c1ccccc1.O=C([CH-]C(=O)c1ccccc1)c1ccccc1.O=C([CH-]C(=O)c1ccccc1)c1ccccc1.[Nd+3].[OH3+]	5.06	18.5	2.62	9.96	8.29	25.5	9.41	36.4	39.5	> 100	4.16	31.1	11.1	68.8	4.1	26.4	4.3	19.2	2.85	8.19
Oc1cc(O)c(Oc2cccc(O)c2O)c(O)c1		> 100		> 100		> 100		> 100		> 100		> 100		> 100		> 100		> 100		> 100
COc1ccc(-c2oc3c(OC)c(OC)c(OC)c(O)c3c(=O)c2OC)cc1OC		> 77.9		> 100		18.4		97.1		> 100		> 55.1		> 100		> 66.1		> 92		> 78.7
C=CCN(/C=C1/C(=O)O[C@H](COC)[C@@]2(C)C1=C(O)C(=O)C1=C2[C@H](OC(C)=O)C[C@]2(C)C(=O)CC[C@@H]12)CC=C	0.379	> 10	2.04	> 10	0.0783	1.57	0.784	> 10	1.08	> 10	1.71	> 10	1.11	> 10	2.17	> 10	0.144	4.45	0.148	> 10
OCCCOC(c1ccccc1)(c1ccccc1)c1ccccc1		> 100		> 100		> 100		> 100		> 100		> 100		> 100		> 100		> 100		> 100
C=C1SC(=Nc2c(C)cc(C)cc2C)N(C(=O)c2sc3ccccc3c2Cl)C12CCCCC2	> 100	> 100	> 100	> 100	39.1	> 100	> 100	> 100	> 100	> 100	> 100	> 100	> 100	> 100	31.1	> 100	78.5	> 100	63.8	> 100
